From US20210352900A1, “Method for Controlling PPO Resistant Weeds” (BASF SE, priority 2016, published 2021)

Assays:
[1] = test system: Amaranthus tamariscinus (AMATA, common waterhemp), PPO resistant biotype 1 (w.2); assay: Greenhouse herbicidal activity test, PPO resistant common waterhemp biotype 1 (w.2); assay type: in vivo; conditions: for activity on / control of resistant weeds (w.2), in words: azafenidin: in comparison to sensitive biotypes; for Weed control (%) w.2: PPO resistant biotype 1, scale 0 to 100
[2] = test system: Amaranthus tamariscinus (AMATA, common waterhemp), sensitive biotype (w.1); assay: Greenhouse herbicidal activity test, sensitive common waterhemp (w.1); assay type: in vivo; conditions: for Weed control (%) w.1: sensitive biotype, scale 0 (no damage) to 100 (complete destruction)

## C#CCOc1cc(-n2nc3n(c2=O)CCCC3)c(Cl)cc1Cl [azafenidin, reference compound]
[1]
  activity on / control of resistant weeds (w.2), in words: much weaker control
[1]; use rate 2 g/ha
  Weed control (%) w.2: 67%
[1]; use rate 4 g/ha
  Weed control (%) w.2: 73%
[2]; use rate 2 g/ha
  Weed control (%) w.1: 95%
[2]; use rate 4 g/ha
  Weed control (%) w.1: 98%

## CCc1ccc(COc2ccc(-n3c(=O)cc(C(F)(F)F)n(C)c3=O)cc2)c(OC(C)C(=O)OC)c1 (centres unmarked) [(I).1, benzfendizone]
[1]
  activity on / control of resistant weeds (w.2), in words: very good activity
[1]; use rate 2 g/ha
  Weed control (%) w.2: 89%
[1]; use rate 4 g/ha
  Weed control (%) w.2: 92%
[2]
  activity on sensitive weeds (w.1), in words: very good activity
[2]; use rate 2 g/ha
  Weed control (%) w.1: 94%
[2]; use rate 4 g/ha
  Weed control (%) w.1: 100%
